Reference: the NIST ThermoML archive (doi:10.1016/j.tca.2018.01.008)
± gives the expanded uncertainty stated by the source.

Conditions: 293.15 K; 101.33 kPa; Liquid; transient hot wire

Row | SMILES | thermal conductivity [W/m/K]
1 | O [water] | 0.597 ± 0.01
2 | OCCO [1,2-ethanediol] | 0.25 ± 0.004
